Literature values, collected in US4144131A, “Immobilization of enzymes on human tissue or erythrocytes” (Wisconsin Alumni Research Foundation, priority 1974, dated 1979).

System: soybean lipoxygenase
Conditions: read-out: Km for oxygen, compared with oxygen concentrations in tumor tissue

For `O=O` [oxygen], the Km is listed as 30 µM.
